In ChEMBL document CHEMBL1909046, “DrugMatrix in vitro pharmacology data”:

How the values were obtained:
Histamine H2 receptor = Histamine H2 receptor (Homo sapiens, UniProt P25021); format: cell membranes, CHO-K1, Membrane; conditions: cho-k1; note: in other assays of this panel Not Active means under 50% inhibition at 10 µM
[1] = target: 5-hydroxytryptamine receptor 2B (Homo sapiens, UniProt P41595); format: cell membranes, CHO-K1, Membrane; conditions: cho-k1; note: in other assays of this panel Not Active means under 50% inhibition at 10 µM
Leukotriene C4 synthase = target: T1, Leukotriene C4 synthase (Cavia porcellus, UniProt A6XA80); test: biochemical; format: tissue-based, Lung;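 note: enzyme inhibition assay of leukotriene C4 synthase, using LTA4 as the substrate; in other assays of this panel Not Active means under 50% inhibition at 10 µM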
T1 sequence (A6XA80 whole entry): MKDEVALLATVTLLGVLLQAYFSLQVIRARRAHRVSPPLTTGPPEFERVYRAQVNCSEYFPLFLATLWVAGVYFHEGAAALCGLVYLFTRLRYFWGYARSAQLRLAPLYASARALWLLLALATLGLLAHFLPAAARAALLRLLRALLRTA

[2] = target: T2, Receptor-type tyrosine-protein phosphatase C (Homo sapiens, UniProt P08575); design: species or system Escherichia coli;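 note: inhibition of CD45 enzyme activity measured using DiFMUP as substrate; in other assays of this panel Not Active means under 50% inhibition at 10 µM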
T2 sequence (P08575 whole entry): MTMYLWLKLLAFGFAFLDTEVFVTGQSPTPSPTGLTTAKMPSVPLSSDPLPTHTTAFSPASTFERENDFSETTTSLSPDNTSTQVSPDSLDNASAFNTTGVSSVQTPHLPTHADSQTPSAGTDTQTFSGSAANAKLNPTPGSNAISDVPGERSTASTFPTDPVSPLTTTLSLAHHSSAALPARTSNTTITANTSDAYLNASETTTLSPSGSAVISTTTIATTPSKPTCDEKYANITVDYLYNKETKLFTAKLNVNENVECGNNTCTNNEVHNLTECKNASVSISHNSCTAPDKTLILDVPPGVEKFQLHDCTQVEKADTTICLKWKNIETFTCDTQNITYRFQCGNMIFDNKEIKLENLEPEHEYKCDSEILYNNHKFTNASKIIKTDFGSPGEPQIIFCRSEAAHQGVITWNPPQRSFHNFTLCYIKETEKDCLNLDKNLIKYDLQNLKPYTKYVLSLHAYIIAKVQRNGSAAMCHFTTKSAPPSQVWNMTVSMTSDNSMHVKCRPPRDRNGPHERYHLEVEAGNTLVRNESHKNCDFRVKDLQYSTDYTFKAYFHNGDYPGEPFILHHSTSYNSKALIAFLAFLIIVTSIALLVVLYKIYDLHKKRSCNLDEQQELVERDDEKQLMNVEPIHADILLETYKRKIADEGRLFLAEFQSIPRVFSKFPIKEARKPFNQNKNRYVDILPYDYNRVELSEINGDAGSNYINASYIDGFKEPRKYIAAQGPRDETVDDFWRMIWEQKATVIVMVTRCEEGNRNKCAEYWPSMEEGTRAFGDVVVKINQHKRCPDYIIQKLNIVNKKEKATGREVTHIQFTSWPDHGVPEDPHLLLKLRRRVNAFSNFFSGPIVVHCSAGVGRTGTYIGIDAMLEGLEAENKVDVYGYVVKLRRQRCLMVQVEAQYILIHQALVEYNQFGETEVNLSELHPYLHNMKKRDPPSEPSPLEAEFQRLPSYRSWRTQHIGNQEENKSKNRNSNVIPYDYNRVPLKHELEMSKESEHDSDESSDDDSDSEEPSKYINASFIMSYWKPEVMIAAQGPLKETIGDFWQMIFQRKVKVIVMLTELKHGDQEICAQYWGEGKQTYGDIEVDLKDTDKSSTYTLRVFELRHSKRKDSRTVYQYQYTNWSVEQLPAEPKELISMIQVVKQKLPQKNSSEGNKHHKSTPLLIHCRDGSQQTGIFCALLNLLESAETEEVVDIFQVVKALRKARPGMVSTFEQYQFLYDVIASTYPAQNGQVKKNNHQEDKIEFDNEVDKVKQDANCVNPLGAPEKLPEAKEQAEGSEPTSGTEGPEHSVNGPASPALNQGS

[3] = target: T3, Type-2 angiotensin II receptor (Homo sapiens, UniProt P50052); format: cell-based; conditions: cho-k1; note: in other assays of this panel Not Active means under 50% inhibition at 10 µM
T3 sequence (P50052 whole entry): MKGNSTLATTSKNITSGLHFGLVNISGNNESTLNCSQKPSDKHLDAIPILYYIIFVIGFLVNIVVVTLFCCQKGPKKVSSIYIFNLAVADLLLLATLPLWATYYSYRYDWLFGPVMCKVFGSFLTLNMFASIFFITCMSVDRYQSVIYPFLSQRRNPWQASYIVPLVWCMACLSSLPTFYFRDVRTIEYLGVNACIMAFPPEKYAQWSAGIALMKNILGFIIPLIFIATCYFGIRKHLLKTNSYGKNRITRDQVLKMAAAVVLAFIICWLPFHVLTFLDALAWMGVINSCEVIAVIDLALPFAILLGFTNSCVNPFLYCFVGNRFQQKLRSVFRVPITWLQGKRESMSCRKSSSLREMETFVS

[4] = DRUGMATRIX: Phosphodiesterase PDE3 enzyme inhibition (substrate: [3H]cAMP + cAMP); format: tissue-based, Homo sapiens; conditions: platelet; Not Active = under 50% inhibition at 10 µM
Cytochrome P450 2A6 = target: T4, Cytochrome P450 2A6 (Homo sapiens, UniProt P11509); conditions: bti-tn-5b1-4; note: in other assays of this panel Not Active means under 50% inhibition at 10 µM
T4 sequence (P11509 whole entry): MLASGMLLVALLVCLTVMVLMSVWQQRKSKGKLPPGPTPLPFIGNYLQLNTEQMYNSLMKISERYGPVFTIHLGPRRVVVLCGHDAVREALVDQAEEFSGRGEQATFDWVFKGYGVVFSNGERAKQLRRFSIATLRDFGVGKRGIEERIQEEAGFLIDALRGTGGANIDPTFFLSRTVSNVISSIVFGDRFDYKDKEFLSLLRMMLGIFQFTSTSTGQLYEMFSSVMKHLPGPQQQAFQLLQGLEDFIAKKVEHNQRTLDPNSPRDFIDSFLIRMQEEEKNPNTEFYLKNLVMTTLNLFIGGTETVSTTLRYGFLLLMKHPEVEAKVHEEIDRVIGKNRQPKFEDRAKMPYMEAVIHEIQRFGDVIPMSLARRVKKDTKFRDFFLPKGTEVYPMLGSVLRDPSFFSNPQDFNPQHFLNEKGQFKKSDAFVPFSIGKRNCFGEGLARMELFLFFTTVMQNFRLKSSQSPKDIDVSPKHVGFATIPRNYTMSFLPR

[5] = DRUGMATRIX: Glutamate, NMDA, Agonism radioligand binding (ligand: [3H] CGP-39653); format: cell membranes, Rattus norvegicus, Wistar, Cerebral cortex, Membrane; conditions: Not Active = under 50% inhibition at 10 µM
Substance-P receptor = Substance-P receptor (Homo sapiens, UniProt P25103); format: cell membranes, CHO, Membrane; conditions: cho; note: in other assays of this panel Not Active means under 50% inhibition at 10 µM
[6] = DRUGMATRIX: Interleukin IL-1 radioligand binding (ligand: [125I] interleukin 1beta); format: cell membranes, Membrane; conditions: nih3t3; Not Active = under 50% inhibition at 10 µM
[7] = DRUGMATRIX: Purinergic P2X radioligand binding (ligand: [3H] alpha, beta-Methylene-ATP); format: cell membranes, Oryctolagus cuniculus, New Zealand albino, Urinary bladder, Membrane; conditions: Not Active = under 50% inhibition at 10 µM

Substance-P receptor, sequence (P25103 whole entry): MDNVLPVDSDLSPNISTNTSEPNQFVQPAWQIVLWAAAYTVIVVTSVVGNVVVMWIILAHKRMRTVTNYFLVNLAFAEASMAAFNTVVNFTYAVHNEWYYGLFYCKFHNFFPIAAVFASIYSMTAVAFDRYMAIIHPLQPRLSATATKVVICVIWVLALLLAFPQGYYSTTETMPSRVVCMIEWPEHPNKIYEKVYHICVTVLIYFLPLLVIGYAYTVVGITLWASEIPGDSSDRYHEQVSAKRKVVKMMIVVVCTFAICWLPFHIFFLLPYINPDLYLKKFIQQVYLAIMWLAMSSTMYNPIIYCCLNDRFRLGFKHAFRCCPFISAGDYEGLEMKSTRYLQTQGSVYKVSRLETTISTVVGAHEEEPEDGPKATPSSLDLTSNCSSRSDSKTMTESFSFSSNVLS
5-hydroxytryptamine receptor 2B, sequence (P41595 whole entry): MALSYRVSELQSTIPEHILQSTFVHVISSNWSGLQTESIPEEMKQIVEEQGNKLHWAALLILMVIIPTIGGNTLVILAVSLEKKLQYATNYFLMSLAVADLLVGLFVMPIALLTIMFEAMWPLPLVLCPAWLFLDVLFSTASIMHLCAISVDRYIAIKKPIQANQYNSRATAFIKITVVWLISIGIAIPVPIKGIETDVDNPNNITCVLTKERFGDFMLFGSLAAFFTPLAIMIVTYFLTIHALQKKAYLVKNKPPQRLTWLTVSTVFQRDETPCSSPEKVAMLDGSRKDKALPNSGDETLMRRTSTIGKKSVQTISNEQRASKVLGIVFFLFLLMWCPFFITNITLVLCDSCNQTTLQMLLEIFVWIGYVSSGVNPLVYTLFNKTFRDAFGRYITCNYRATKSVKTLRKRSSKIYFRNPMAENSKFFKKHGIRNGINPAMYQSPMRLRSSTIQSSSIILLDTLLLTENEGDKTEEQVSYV
Histamine H2 receptor, sequence (P25021 whole entry): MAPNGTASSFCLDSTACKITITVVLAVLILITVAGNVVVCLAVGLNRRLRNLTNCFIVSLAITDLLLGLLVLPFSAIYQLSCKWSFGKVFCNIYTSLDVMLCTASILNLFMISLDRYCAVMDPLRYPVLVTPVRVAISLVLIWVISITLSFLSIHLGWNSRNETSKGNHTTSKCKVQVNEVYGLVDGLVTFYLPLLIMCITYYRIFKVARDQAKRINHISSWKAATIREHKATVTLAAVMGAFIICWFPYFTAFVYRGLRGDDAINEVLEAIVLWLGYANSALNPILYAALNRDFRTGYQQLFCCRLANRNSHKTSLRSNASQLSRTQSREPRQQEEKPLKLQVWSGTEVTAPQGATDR

CCOC(=O)[C@H](CCc1ccccc1)N[C@@H](C)C(=O)N1[C@H](C(=O)O)C[C@@H]2CCC[C@@H]21
Not Active: IC50 (Histamine H2 receptor) | IC50 [1] | IC50 (Leukotriene C4 synthase) | IC50 [2] | IC50 [3] | IC50 [4] | Ki [4] | IC50 (Cytochrome P450 2A6) | Ki (Cytochrome P450 2A6) | IC50 [5] | Ki [5] | IC50 (Substance-P receptor) | IC50 [6] | Ki [6] | IC50 [7] | Ki [7]

CC(C)(C)NC(=O)[C@@H]1CN(Cc2cccnc2)CCN1C[C@@H](O)C[C@@H](Cc1ccccc1)C(=O)N[C@H]1c2ccccc2C[C@H]1O.O
Not Active: IC50 (Histamine H2 receptor) | IC50 [1] | IC50 (Leukotriene C4 synthase) | IC50 [2] | IC50 [3] | IC50 [4] | Ki [4] | IC50 (Cytochrome P450 2A6) | Ki (Cytochrome P450 2A6) | IC50 [5] | Ki [5] | IC50 (Substance-P receptor) | IC50 [6] | Ki [6] | IC50 [7] | Ki [7]

CC1(C)[C@H]2CC[C@]1(C)C(=O)C2 [(-)-CAMPHOR]
Not Active: IC50 (Histamine H2 receptor) | IC50 [1] | IC50 (Leukotriene C4 synthase) | IC50 [2] | IC50 [3] | IC50 [4] | Ki [4] | IC50 (Cytochrome P450 2A6) | Ki (Cytochrome P450 2A6) | IC50 [5] | Ki [5] | IC50 (Substance-P receptor) | IC50 [6] | Ki [6] | IC50 [7] | Ki [7]

CC(C)(C)NCC(O)c1ccc(O)c(CO)c1 (stereo not given) [ALBUTEROL]
Not Active: IC50 (Histamine H2 receptor) | IC50 [1] | IC50 (Leukotriene C4 synthase) | IC50 [2] | IC50 [3] | IC50 [4] | Ki [4] | IC50 (Cytochrome P450 2A6) | Ki (Cytochrome P450 2A6) | IC50 [5] | Ki [5] | IC50 (Substance-P receptor) | IC50 [6] | Ki [6] | IC50 [7] | Ki [7]

Oc1c(I)cc(I)c2cccnc12 [IODOQUINOL]
Not Active: IC50 (Histamine H2 receptor) | IC50 [1] | IC50 (Leukotriene C4 synthase) | IC50 [2] | IC50 [3] | IC50 [4] | Ki [4] | IC50 (Cytochrome P450 2A6) | Ki (Cytochrome P450 2A6) | IC50 [5] | Ki [5] | IC50 (Substance-P receptor) | IC50 [6] | Ki [6] | IC50 [7] | Ki [7]

NNC(=O)c1ccncc1 [ISONIAZID]
Not Active: IC50 (Histamine H2 receptor) | IC50 [1] | IC50 (Leukotriene C4 synthase) | IC50 [2] | IC50 [3] | IC50 [4] | Ki [4] | IC50 (Cytochrome P450 2A6) | Ki (Cytochrome P450 2A6) | IC50 [5] | Ki [5] | IC50 (Substance-P receptor) | IC50 [6] | Ki [6] | IC50 [7] | Ki [7]

CN[C@@H]1[C@@H](O)[C@@H](O[C@@H]2[C@@H](O)[C@H](O[C@H]3OC(CN)=CC[C@H]3N)[C@@H](N)C[C@H]2N)OC[C@]1(C)O [SISOMICIN]
Not Active: IC50 (Histamine H2 receptor) | IC50 [1] | IC50 (Leukotriene C4 synthase) | IC50 [2] | IC50 [3] | IC50 [4] | Ki [4] | IC50 [5] | Ki [5] | IC50 (Substance-P receptor) | IC50 [6] | Ki [6] | IC50 [7] | Ki [7]
